Source: patent US12173007B2, “Imidazopyridazine IL-17 inhibitor compounds” (Janssen Pharmaceutica NV, priority 2021, dated 2024)
pIC50: −log10 of the molar value.

Columns and labels:
[1] = biological target: T1, IL-17A(FLAG-Tagged): IL-17RA(His-Tagged) binding (Homo sapiens, UniProt Q16552, K93Q); assay: IL-17A(FLAG-tagged):IL-17RA(His-tagged) binding disruption Eu-HTRF assay, Protocol 2; conditions: FLAG-IL-17A 1 nM; average if tested more than once
Method in brief: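 FLAG-tagged IL-17A (1 nM final) was preincubated with compound (2-fold serial dilutions, 22 points) for 1 h at rt in PBS + 0.01% Triton X-100. 10×His-IL-17RA, Eu-anti-FLAG and D2-anti-His in buffer containing KF were then added for 2 h at rt. IC50 came from the 665/615 nm HTRF ratio fitted to a one-site competition model.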

[2] = system: IL-17A-induced G-CSF production in human normal keratinocyte (NHK); assay: NHK assay: IL-17A-induced G-CSF production in normal human keratinocytes; format: cell-based; conditions: Homo sapiens, Keratinocyte, 24 h, IL-17A 5 ng/mL, G-CSF by HTRF, average if tested more than once
Method in brief: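 Compound titrations are first mixed with recombinant human IL-17A for 1 h at room temperature. The mixture goes onto adult normal human keratinocytes (final IL-17A 5 ng/mL, 5% FBS, 0.2% DMSO) for 24 h at 37 °C. Secreted G-CSF is then measured by HTRF and IC50 fitted.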

[3] = biological target: T1, IL-17A(FLAG-Tagged): IL-17RA(His-Tagged) binding; assay: IL-17A(FLAG-tagged):IL-17RA(His-tagged) binding disruption Eu-HTRF assay, Protocol 1; conditions: FLAG-IL-17A 2.5 nM; average if tested more than once
Description: IL-17A(FLAG-Tagged): IL-17RA(His-Tagged) Binding Disruption Eu-HTRF Assay
An antibody directed against the FLAG tag of IL-17A (SEQ ID NO: 1) is labeled with the HTRF donor chromophore (Europium-cryptate). IL-17A is present as a dimer that is “locked into” this quaternary structure due to the formation of loop-spanning […] disulfide bridges. The construct of IL-17RA used in the assay excludes the […] portion of the receptor and is fused to a C-terminal 10×His tag (SEQ ID NO:2). An antibody directed against the His tag of the IL-17RA chimera is labeled with the HTRF acceptor chromophore (“D2”). The fluorescence-resonance energy transfer (FRET) depends on the vicinity of the donor chromophore to the acceptor, and interruption of the binding between the IL-17A and IL-17RA causes the reduction/loss of FRET. Therefore, this assay allows to evaluate the compound effect on the binding IL-17A and IL-17RA by monitoring the fluorescence intensity of donor vs acceptor. The assay was run using either Protocol 1 or Protocol 2 as described below.
Protocol 1. 40 nl of 2-fold serial diluted compound solution for total 22 dilution points is added into each well of a 1536-well, white, low-volume, non-binding plate (Greiner #782904), then 2 μl of FLAG tagged IL-17A at 2×final concentration (2.5 nM) in solution of PBS+0.01% Triton-X100 is added to each well. The assay plate is briefly centrifuged then incubated for 1 h at rt. A mixed solution is prepared containing 2×5 nM 10HIS×IL-17RA, 2×2.5 nM Eu-anti-FLAG (CISBIO), 2×5 nM D2-anti-HIS (CISBIO) in PBS+0.01% Triton-X100+200 mM Potassium Fluoride (Sigma 60238) and 2 μl of mix is added to each well of the assay plate. The plate is briefly centrifuged then incubated for 2 h at rt. The HTRF intensities at the wavelength of donor (620 nm) and acceptor (665 nm) are measured using BMG Pherastar. The ratio between intensities at two wavelengths is calculated and plotted against the compound concentration and the data is fitted to a one-site competition model to yield IC50 of the compound.

[4] = moderate-to-severe HS, seven of nine patients, open-label pilot-trial; cited from earlier work

T1 sequence (Q16552 with tags, fused parts or gaps K93Q): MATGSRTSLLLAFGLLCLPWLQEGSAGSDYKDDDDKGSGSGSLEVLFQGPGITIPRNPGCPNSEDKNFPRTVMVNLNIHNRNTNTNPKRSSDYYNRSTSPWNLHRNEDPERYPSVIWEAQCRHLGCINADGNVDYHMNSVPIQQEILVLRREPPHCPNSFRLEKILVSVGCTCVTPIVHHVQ

pIC50 [1]	pIC50 [3]	Compound	pIC50 [2]	patients achieved HiSCR [4] [%]
> 7.30	> 7.30	Cc1nonc1C(=O)N[C@H](c1cn2ncc([C@@H](COC3CC3)N3CC(F)(F)CNC3=O)cc2n1)C1CCC(F)(F)CC1 [Example 16, N—((S)-(7-((S)-2-Cyclopropoxy-1-(5,5-difluoro-2-oxotetrahydropyrimidin-1(2H)-yl)ethyl)imidazo[1,2-b]pyridazin-2-yl)(4,4-difluorocyclohexyl)methyl)-4-methyl-1,2,5-oxadiazole-3-carboxamide]	> 7.30	–
–	7.00 to 7.30	CC1(C)CNC(=O)N(Cc2cnn3cc([C@@H](NC(=O)c4nonc4C4CC4)C4CCC(F)(F)CC4)nc3c2)C1 [Example 33, (S)-4-Cyclopropyl-N-((4,4-difluorocyclohexyl)(7-((5,5-dimethyl-2-oxotetrahydropyrimidin-1(2H)-yl)methyl)imidazo[1,2-b]pyridazin-2-yl)methyl)-1,2,5-oxadiazole-3-carboxamide]	< 7.00	–
–	< 7.00	CC(C)n1nccc1C(=O)N[C@H](c1cn2ncc(CN3CC(C)(C)CNC3=O)cc2n1)C1CCC(F)(F)CC1 [Example 34, (S)—N-((4,4-Difluorocyclohexyl)(7-((5,5-dimethyl-2-oxotetrahydropyrimidin-1(2H)-yl)methyl)imidazo[1,2-b]pyridazin-2-yl)methyl)-1-isopropyl-1H-pyrazole-5-carboxamide]	< 7.00	–
> 7.30	> 7.30	O=C(N[C@H](c1cn2ncc(CN3CC(F)(F)C(F)(F)CNC3=O)cc2n1)C1CCC(F)(F)CC1)c1nonc1C1CC1 [Example 86, (S)-4-Cyclopropyl-N-((4,4-difluorocyclohexyl)(7-((5,5,6,6-tetrafluoro-2-oxo-1,3-diazepan-1-yl)methyl)imidazo[1,2-b]pyridazin-2-yl)methyl)-1,2,5-oxadiazole-3-carboxamide]	> 7.30	–

The next lines start with the compound.

Compound	pIC50 [1]	pIC50 [3]	pIC50 [2]	patients achieved HiSCR [4] [%]
COC[C@H](c1cnn2cc([C@@H](NC(=O)c3nonc3C3CC3)C3CCC(F)(F)CC3)nc2c1)N1CC(F)(F)CNC1=O [Example 11, 4-Cyclopropyl-N—((S)-(7-((S)-1-(5,5-difluoro-2-oxotetrahydropyrimidin-1(2H)-yl)-2-methoxyethyl)imidazo[1,2-b]pyridazin-2-yl)(4,4-difluorocyclohexyl)methyl)-1,2,5-oxadiazole-3-carboxamide]	> 7.30	> 7.30	> 7.30	–
CC(C)n1nccc1C(=O)N[C@H](c1cn2ncc(CN3CCCCNC3=O)cc2n1)C1CCC(F)(F)CC1 [Example 31, (S)—N-((4,4-Difluorocyclohexyl)(7-((2-oxo-1,3-diazepan-1-yl)methyl)imidazo[1,2-b]pyridazin-2-yl)methyl)-1-isopropyl-1H-pyrazole-5-carboxamide]	–	< 7.00	< 7.00	–
Cc1nonc1C(=O)N[C@H](c1cn2ncc(CN3CC(C)(C)CNC3=O)cc2n1)C1CCC(F)(F)CC1 [Example 32, (S)—N-((4,4-Difluorocyclohexyl)(7-((5,5-dimethyl-2-oxotetrahydropyrimidin-1(2H)-yl)methyl)imidazo[1,2-b]pyridazin-2-yl)methyl)-4-methyl-1,2,5-oxadiazole-3-carboxamide]	–	< 7.00	< 7.00	–
N#CC1([C@H](c2cnn3cc([C@@H](NC(=O)c4nonc4C4CC4)C4CCC(F)(F)CC4)nc3c2)N2CC(F)(F)CNC2=O)CCC1 [Example 85, N—((S)-(7-((S)-(1-Cyanocyclobutyl)(5,5-difluoro-2-oxotetrahydropyrimidin-1(2H)-yl)methyl)imidazo[1,2-b]pyridazin-2-yl)(4,4-difluorocyclohexyl)methyl)-4-cyclopropyl-1,2,5-oxadiazole-3-carboxamide]	–	> 7.30	< 7.00	–
secukinumab	–	–	–	78
